Measurements from patent US20240116985A1, “STAPLED PEPTIDES AND METHODS THEREOF” (priority 2020, published 2024).
Read-outs that look alike come from different tables or passages of the source.

How the values were obtained:
[1] = biological target: T1, beta-catenin/TCF4 engagement (Homo sapiens, UniProt P35222); experiment: Nano-BRET target engagement assay (B-cat-Halo & TCF4-Luc in HEK293 cells); type: cell-based
T1 construct: expressed in transfected cells; host or cells: HEK293
T1 sequence (P35222 1-781): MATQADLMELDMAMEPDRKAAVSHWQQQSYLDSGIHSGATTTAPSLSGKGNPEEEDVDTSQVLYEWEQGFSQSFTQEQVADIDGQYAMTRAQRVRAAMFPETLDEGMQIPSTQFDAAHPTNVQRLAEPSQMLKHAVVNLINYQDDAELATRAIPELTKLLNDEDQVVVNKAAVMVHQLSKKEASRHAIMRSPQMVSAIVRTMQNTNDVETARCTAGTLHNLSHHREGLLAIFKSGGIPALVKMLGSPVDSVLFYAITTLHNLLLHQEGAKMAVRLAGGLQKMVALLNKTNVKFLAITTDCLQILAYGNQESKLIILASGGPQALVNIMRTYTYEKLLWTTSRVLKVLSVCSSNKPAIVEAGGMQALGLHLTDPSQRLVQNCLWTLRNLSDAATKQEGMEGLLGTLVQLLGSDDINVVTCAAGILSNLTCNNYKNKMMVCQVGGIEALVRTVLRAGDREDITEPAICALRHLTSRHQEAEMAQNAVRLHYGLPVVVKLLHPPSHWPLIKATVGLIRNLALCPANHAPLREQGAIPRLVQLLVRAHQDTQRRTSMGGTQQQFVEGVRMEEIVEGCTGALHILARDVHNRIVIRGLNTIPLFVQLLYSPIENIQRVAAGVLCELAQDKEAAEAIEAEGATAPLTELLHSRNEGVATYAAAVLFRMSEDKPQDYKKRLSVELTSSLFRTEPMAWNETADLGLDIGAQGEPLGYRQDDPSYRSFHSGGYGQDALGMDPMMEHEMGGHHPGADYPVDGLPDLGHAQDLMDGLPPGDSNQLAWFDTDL

[2] = biological target: T2, full-length beta-Catenin (Uniprot ID P35222) (Homo sapiens, UniProt P35222); experiment: Fluorescence polarization IC50 (beta-catenin / 5FAM-TCF4 10-53 competition); type: binding; conditions: fluorescence polarization
T2 construct: 10 nM full-length beta-Catenin (Uniprot ID P35222)
T2 sequence (P35222 1-781): T1 sequence (P35222 1-781)

| Compound | IC50 ([1]; read-out: NanoBRET Abs IC50) [µM] | IC50 ([2]; read-out: beta-Catenin FP IC50) [nM] | IC50 ([1]; NanoBRET Abs IC50 (uM)) [µM] | IC50 ([2]; beta-Catenin FP IC50 (nM)) [nM] |
| --- | --- | --- | --- | --- |
| CC(=O)N1CCC[C@]12CC=CCCCC1(CCCC=CCCCOC(=O)N3CC[C@@](C(=O)N[C@@H](Cc4ccsc4)C(=O)N[C@@H](Cc4csc5ccccc45)C(=O)N[C@@H](Cc4ccccc4)C(N)=O)(C3)NC(=O)[C@H](CC(C)C)NC(=O)[C@H](Cc3ccccc3)NC(=O)[C@H](C)NC(=O)[C@H](CCCCNC(C)C)NC(=O)[C@H](Cc3cccc(C(=O)O)c3)NC(=O)[C@H](CC(=O)O)NC1=O)NC(=O)[C@H](CC(C)(C)C)NC(=O)[C@H](CC(=O)O)NC2=O (stereo partly drawn) [I-1909, Ac-PL3-Asp-Npg-B5-Asp-3COOHF-iPrLys-Ala-Phe-Leu-PyrS2-3Thi-BztA-Phe-NH2] | > 20 | 29 |  |  |
| CC(=O)N1CCC[C@]12CC=CCCCC1(CCCC=CCCCOC(=O)N3CC[C@@](C(=O)N[C@@H](Cc4ccsc4)C(=O)N[C@@H](Cc4csc5ccccc45)C(=O)N[C@@H](Cc4ccccc4)C(N)=O)(C3)NC(=O)[C@H](CC(C)C)NC(=O)[C@H](Cc3ccccc3)NC(=O)[C@H](C)NC(=O)[C@H](CCCCN)NC(=O)[C@H](Cc3cccc(C(=O)O)c3)NC(=O)[C@H](CC(=O)O)NC1=O)NC(=O)[C@H](CC(C)(C)C)NC(=O)[C@H](CC(=O)O)NC2=O (stereo partly drawn) [I-1911, Ac-PL3-Asp-Npg-B5-Asp-3COOHF-Lys-Ala-Phe-Leu-PyrS2-3Thi-BztA-Phe-NH2] | > 20 | 38 |  |  |
| CC(=O)N1CCC[C@]12CC=CCCCC1(CCCC=CCCCOC(=O)N3CC[C@@](C(=O)N[C@@H](Cc4ccsc4)C(=O)N[C@@H](Cc4csc5ccccc45)C(=O)N[C@@H](Cc4ccccc4)C(N)=O)(C3)NC(=O)[C@H](CC(C)C)NC(=O)[C@H](Cc3ccccc3)NC(=O)[C@H](C)NC(=O)[C@H](CCC(N)=O)NC(=O)[C@H](Cc3cccc(C(=O)O)c3)NC(=O)[C@H](CC(=O)O)NC1=O)NC(=O)[C@H](CC(C)(C)C)NC(=O)[C@H](CC(=O)O)NC2=O (stereo partly drawn) [I-1912, Ac-PL3-Asp-Npg-B5-Asp-3COOHF-Gln-Ala-Phe-Leu-PyrS2-3Thi-BztA-Phe-NH2] | 11.5 | 13 |  |  |
| CCCC[C@@H]1NC(=O)[C@H](Cc2cccc(C(=O)O)c2)NC(=O)[C@H](CC(=O)O)NC(=O)C2(CCCC=CCCCOC(=O)N3CC[C@@](C(=O)N[C@@H](Cc4ccsc4)C(=O)N[C@@H](Cc4csc5ccccc45)C(=O)N[C@@H](Cc4ccccc4)C(N)=O)(C3)NC(=O)[C@H](CC(C)C)NC(=O)[C@H](Cc3ccccc3)NC(=O)[C@H](C)NC1=O)CCCC=CC[C@]1(CCCN1C(C)=O)C(=O)N[C@@H](CC(=O)O)C(=O)N[C@@H](CC(C)(C)C)C(=O)N2 (stereo partly drawn) [I-1913, Ac-PL3-Asp-Npg-B5-Asp-3COOHF-nLeu-Ala-Phe-Leu-PyrS2-3Thi-BztA-Phe-NH2] | 17.5 | 119 |  |  |
| CC(=O)N1CCC[C@]12CC=CCCCC1(CCCC=CCCCOC(=O)N3CC[C@@](C(=O)N[C@@H](Cc4ccsc4)C(=O)N[C@@H](Cc4csc5ccccc45)C(=O)N[C@@H](Cc4ccccc4)C(N)=O)(C3)NC(=O)[C@H](CC(C)C)NC(=O)[C@H](Cc3ccccc3)NC(=O)[C@H](C)NC(=O)C(C)(C)NC(=O)[C@H](Cc3cccc(C(=O)O)c3)NC(=O)[C@H](CC(=O)O)NC1=O)NC(=O)[C@H](CC(C)(C)C)NC(=O)[C@H](CC(=O)O)NC2=O (stereo partly drawn) [I-1914, Ac-PL3-Asp-Npg-B5-Asp-3COOHF-Aib-Ala-Phe-Leu-PyrS2-3Thi-BztA-Phe-NH2] | 6.4 | 52 |  |  |
| CC(=O)N1CCC[C@]12CC=CCCCC1(CCCC=CCCCOC(=O)N3CC[C@@](C(=O)N[C@@H](Cc4ccsc4)C(=O)N[C@@H](Cc4csc5ccccc45)C(=O)N[C@@H](C)C(N)=O)(C3)NC(=O)[C@H](CC(C)C)NC(=O)[C@H](Cc3ccccc3)NC(=O)[C@H](C)NC(=O)[C@H](CCCCNC(C)C)NC(=O)[C@H](Cc3cccc(C(=O)O)c3)NC(=O)[C@H](CC(=O)O)NC1=O)NC(=O)[C@H](CC(C)(C)C)NC(=O)[C@H](CC(=O)O)NC2=O (stereo partly drawn) [I-1915, Ac-PL3-Asp-Npg-B5-Asp-3COOHF-iPrLys-Ala-Phe-Leu-PyrS2-3Thi-BztA-Ala-NH2] | 20.2 | 11 |  |  |
| CC(=O)N1CCC[C@]12CC=CCCCC1(CCCC=CCCCOC(=O)N3CC[C@@](C(=O)N[C@@H](Cc4ccsc4)C(=O)N[C@@H](Cc4csc5ccccc45)C(=O)N[C@@H](C)C(N)=O)(C3)NC(=O)[C@H](CC(C)C)NC(=O)[C@H](Cc3ccccc3)NC(=O)[C@H](C)NC(=O)[C@H](Cc3c[nH]cn3)NC(=O)[C@H](Cc3cccc(C(=O)O)c3)NC(=O)[C@H](CC(=O)O)NC1=O)NC(=O)[C@H](CC(C)(C)C)NC(=O)[C@H](CC(=O)O)NC2=O (stereo partly drawn) [I-1916, Ac-PL3-Asp-Npg-B5-Asp-3COOHF-His-Ala-Phe-Leu-PyrS2-3Thi-BztA-Ala-NH2] | 9.2 | 8 |  |  |
| CC(=O)N1CCC[C@]12CC=CCCCC1(CCCC=CCCCOC(=O)N3CC[C@@](C(=O)N[C@@H](Cc4ccsc4)C(=O)N[C@@H](Cc4csc5ccccc45)C(=O)N[C@@H](C)C(N)=O)(C3)NC(=O)[C@H](CC(C)C)NC(=O)[C@H](Cc3ccccc3)NC(=O)[C@H](C)NC(=O)[C@H](CCCCN)NC(=O)[C@H](Cc3cccc(C(=O)O)c3)NC(=O)[C@H](CC(=O)O)NC1=O)NC(=O)[C@H](CC(C)(C)C)NC(=O)[C@H](CC(=O)O)NC2=O (stereo partly drawn) [I-1917, Ac-PL3-Asp-Npg-B5-Asp-3COOHF-Lys-Ala-Phe-Leu-PyrS2-3Thi-BztA-Ala-NH2] | 37.7 | 13 |  |  |
| CCCC[C@@H]1NC(=O)[C@H](Cc2cccc(C(=O)O)c2)NC(=O)[C@H](CC(=O)O)NC(=O)C2(CCCC=CCCCOC(=O)N3CC[C@@](C(=O)N[C@@H](Cc4ccsc4)C(=O)N[C@@H](Cc4csc5ccccc45)C(=O)N[C@@H](C)C(N)=O)(C3)NC(=O)[C@H](CC(C)C)NC(=O)[C@H](Cc3ccccc3)NC(=O)[C@H](C)NC1=O)CCCC=CC[C@]1(CCCN1C(C)=O)C(=O)N[C@@H](CC(=O)O)C(=O)N[C@@H](CC(C)(C)C)C(=O)N2 (stereo partly drawn) [I-1919, Ac-PL3-Asp-Npg-B5-Asp-3COOHF-nLeu-Ala-Phe-Leu-PyrS2-3Thi-BztA-Ala-NH2] | 4.7 | 33 |  |  |
| CC(=O)N1CCC[C@]12CC=CCCCC1(CCCC=CCCCOC(=O)N3CC[C@@](C(=O)N[C@@H](Cc4cccc(C(N)=O)c4)C(=O)N[C@@H](Cc4csc5ccccc45)C(=O)N[C@@H](CCO)C(N)=O)(C3)NC(=O)[C@H](CC(N)=O)NC(=O)[C@H](Cc3ccccc3)NC(=O)[C@H](C)NC(=O)[C@H](CCCCNC(C)C)NC(=O)[C@H](CCC(N)=O)NC(=O)[C@H](CC(=O)O)NC1=O)NC(=O)[C@H](CC1CCCCC1)NC(=O)[C@H](CC(N)=O)NC2=O (stereo partly drawn) [I-1929, Ac-PL3-Asn-Cha-B5-Asp-Gln-iPrLys-Ala-Phe-Asn-PyrS2-3cbmf-BztA-Hse-NH2] | > 20 | 74 |  |  |
| CC(=O)N1CCC[C@]12CC=CCCCC1(CCCC=CCCCOC(=O)N3CC[C@@](C(=O)N[C@@H](Cc4ccsc4)C(=O)N[C@@H](Cc4csc5ccccc45)C(=O)N[C@@H](CCC(N)=O)C(N)=O)(C3)NC(=O)[C@H](CCC(=O)N3CCN(CC(F)(F)F)CC3)NC(=O)[C@H](Cc3ccccc3)NC(=O)[C@H](C)NC(=O)[C@H](C)NC(=O)[C@H](CN(CC(=O)O)CC(F)(F)F)NC(=O)[C@H](CC(=O)O)NC1=O)NC(=O)[C@H](CC(C)(C)C)NC(=O)[C@H](CC(=O)O)NC2=O (stereo partly drawn) [I-1935, Ac-PL3-Asp-Npg-B5-Asp-TfeGA-Ala-Ala-Phe-[TfePpz]GlnR-PyrS2-3Thi-BztA-Gln-NH2] | 7.1 | 9 |  |  |
| CC(=O)N1CCC[C@]12CC=CCCCC1(CCCC=CCCCOC(=O)N3CC[C@@](C(=O)N[C@@H](Cc4ccsc4)C(=O)N[C@@H](Cc4csc5ccccc45)C(=O)N[C@@H](CCC(N)=O)C(N)=O)(C3)NC(=O)[C@H](CCC(=O)N3CCN(CCCN(C)C)CC3)NC(=O)[C@H](Cc3ccccc3)NC(=O)[C@H](C)NC(=O)[C@H](C)NC(=O)[C@H](CN(CC(=O)O)CC(F)(F)F)NC(=O)[C@H](CC(=O)O)NC1=O)NC(=O)[C@H](CC(C)(C)C)NC(=O)[C@H](CC(=O)O)NC2=O (stereo partly drawn) [I-1936, Ac-PL3-Asp-Npg-B5-Asp-TfeGA-Ala-Ala-Phe-[Me2NPrPip]GlnR-PyrS2-3Thi-BztA-Gln-NH2] | 15.7 | 10 |  |  |
| CC(=O)N1CCC[C@]12CC=CCCCC1(CCCC=CCCCOC(=O)N3CC[C@@](C(=O)N[C@@H](Cc4ccsc4)C(=O)N[C@@H](Cc4csc5ccccc45)C(=O)N[C@@H](CCC(N)=O)C(N)=O)(C3)NC(=O)[C@H](CCC(=O)N3CCN(c4ccncc4)CC3)NC(=O)[C@H](Cc3ccccc3)NC(=O)[C@H](C)NC(=O)[C@H](C)NC(=O)[C@H](CN(CC(=O)O)CC(F)(F)F)NC(=O)[C@H](CC(=O)O)NC1=O)NC(=O)[C@H](CC(C)(C)C)NC(=O)[C@H](CC(=O)O)NC2=O (stereo partly drawn) [I-1938, Ac-PL3-Asp-Npg-B5-Asp-TfeGA-Ala-Ala-Phe-[4PyPip]GlnR-PyrS2-3Thi-BztA-Gln-NH2] |  |  | 30 | 8 |
